Source: the supplement of paper PMC10883282
Counter-ions that a name gives are not always drawn. ± gives the standard deviation of the averaged measurements.

Tested on: HS729
Experiment: relative viability vs DMSO control (72 h) (fraction); higher = more viable cells
Procedure, shortened: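 Sarcoma cell lines in 384-well plates, seeded to reach 80–90% confluence, were given compound after 24 h and kept 72 h at 37 °C, 5% CO2, with 0.1% DMSO vehicle and a 5 µM positive control. Relative viability came from ATPLite as percent growth, averaged over up to triplicate wells. On the rescaled values, 1 equals full and 0 equals none.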

SMILES	relative viability (0.00017 µM)	relative viability (0.00051 µM)	relative viability (0.00152 µM)	relative viability (0.00457 µM)	relative viability (0.01372 µM)	relative viability (0.04115 µM)	relative viability (0.1235 µM)	relative viability (0.3704 µM)	relative viability (1.111 µM)	relative viability (3.333 µM)	relative viability (10 µM)
C[C@@H]1COCCN1c1cc(-c2ccnn2C)c2ccnc(-c3ccn[nH]3)c2n1	0.945 ± 0.068	0.894 ± 0.045	0.92 ± 0.071	0.873 ± 0.041	0.849 ± 0.036	0.804 ± 0.04	0.681 ± 0.019	0.634 ± 0.018	0.469 ± 0.017	0.403 ± 0.033	0.373 ± 0.012
CCN1CCN(Cc2ccc(Nc3ncc(F)c(-c4cc(F)c5nc(C)n(C(C)C)c5c4)n3)nc2)CC1 [Abemaciclib]	0.912 ± 0.041	0.923 ± 0.014	0.892 ± 0.057	0.862 ± 0.033	0.9097 ± 0.0087	0.865 ± 0.029	0.818 ± 0.029	0.854 ± 0.087	0.873 ± 0.025	0.886 ± 0.021	0.885 ± 0.011
CCc1cc2c(cc1N1CCC(N3CCOCC3)CC1)C(C)(C)c1[nH]c3cc(C#N)ccc3c1C2=O [Alectinib]	0.923 ± 0.021	0.962 ± 0.027	0.958 ± 0.035	0.938 ± 0.073	0.972 ± 0.047	0.987 ± 0.021	0.937 ± 0.029	0.941 ± 0.045	1 ± 0.058	0.933 ± 0.022	1.02 ± 0.024
Cc1nc(NC(=O)N2CCC[C@H]2C(N)=O)sc1-c1ccnc(C(C)(C)C(F)(F)F)c1 [Alpelisib]	1 ± 0.028	0.935 ± 0.034	0.922 ± 0.087	0.884 ± 0.042	0.838 ± 0.026	0.785 ± 0.067	0.745 ± 0.06	0.68 ± 0.041	0.577 ± 0.024	0.536 ± 0.039	0.445 ± 0.0061
Cn1cc(-c2cc3c(N4CCN(c5ncc([C@@](C)(N)c6ccc(F)cc6)cn5)CC4)ncnn3c2)cn1 [Avapritinib]	0.909 ± 0.046	0.949 ± 0.023	0.9313 ± 0.0083	0.916 ± 0.037	0.909 ± 0.025	0.899 ± 0.077	0.864 ± 0.093	0.822 ± 0.084	0.814 ± 0.11	0.819 ± 0.086	0.802 ± 0.13
CC(C)NC(=O)C1CCC(n2c(NC(=O)c3ccc(F)cc3)nc3ccc(CN4CCC(C(C)(C)O)CC4)cc32)CC1 (stereo not drawn) [Belizatinib]	0.93 ± 0.018	0.952 ± 0.042	0.967 ± 0.057	0.945 ± 0.027	0.949 ± 0.061	0.9059 ± 0.0065	0.836 ± 0.043	0.695 ± 0.041	0.602 ± 0.04	0.526 ± 0.02	0.42 ± 0.053
Cn1cnc2c(F)c(Nc3ccc(Br)cc3F)c(C(=O)NOCCO)cc21 [Binimetinib]	1.07 ± 0.013	1.05 ± 0.063	1.06 ± 0.12	1.01 ± 0.077	0.986 ± 0.035	0.933 ± 0.052	0.898 ± 0.019	0.906 ± 0.023	0.906 ± 0.046	0.856 ± 0.013	0.811 ± 0.012
Nc1cc(C(F)(F)F)c(-c2cc(N3CCOCC3)nc(N3CCOCC3)n2)cn1 [Buparlisib]	0.937 ± 0.034	0.95 ± 0.015	0.936 ± 0.046	0.906 ± 0.083	0.902 ± 0.062	0.89 ± 0.012	0.812 ± 0.052	0.702 ± 0.059	0.568 ± 0.053	0.327 ± 0.023	0.274 ± 0.026
CNC(=O)c1ccc(-c2cnc3ncc(Cc4ccc5ncccc5c4)n3n2)cc1F [Capmatinib]	0.949 ± 0.061	0.94 ± 0.025	0.945 ± 0.027	0.956 ± 0.053	0.935 ± 0.021	0.956 ± 0.023	0.949 ± 0.029	0.921 ± 0.054	0.924 ± 0.043	0.953 ± 0.087	0.906 ± 0.066
COc1cc2c(Oc3ccc4[nH]c(C)cc4c3F)ncnc2cc1OCCCN1CCCC1 [Cediranib]	0.964 ± 0.077	0.991 ± 0.077	0.954 ± 0.044	0.962 ± 0.086	0.991 ± 0.045	0.968 ± 0.057	0.94 ± 0.059	0.8 ± 0.1	0.665 ± 0.039	0.834 ± 0.024	0.83 ± 0.026
COc1c(OCCCN2CCOCC2)ccc2c1N=C(NC(=O)c1cnc(N)nc1)N1CCN=C21 [Copanlisib]	1.05 ± 0.04	0.906 ± 0.03	0.919 ± 0.027	0.701 ± 0.12	0.688 ± 0.028	0.6016 ± 0.0023	0.483 ± 0.028	0.439 ± 0.045	0.324 ± 0.035	0.306 ± 0.022	0.255 ± 0.015
CN1CCN(c2ccc3nc(-c4c(N)c5c(F)cccc5[nH]c4=O)[nH]c3c2)CC1 [Dovitinib]	1.09 ± 0.058	1.03 ± 0.036	1.09 ± 0.027	1.04 ± 0.061	1.05 ± 0.079	1 ± 0.026	0.968 ± 0.083	0.832 ± 0.059	0.62 ± 0.025	0.41 ± 0.066	0.264 ± 0.034
COc1cccc2c1C(=O)c1c(O)c3c(c(O)c1C2=O)C[C@@](O)(C(=O)CO)C[C@@H]3O[C@H]1C[C@H](N)[C@H](O)[C@H](C)O1 [Doxorubicin Hydrochloride]	0.93 ± 0.021	0.93 ± 0.047	0.949 ± 0.054	0.946 ± 0.055	0.81 ± 0.029	0.6943 ± 0.0048	0.525 ± 0.041	0.303 ± 0.017	0.258 ± 0.0095	0.136 ± 0.0072	0.118 ± 0.0061
Cc1cnc(Nc2ccc(OCCN3CCCC3)cc2)nc1Nc1cccc(S(=O)(=O)NC(C)(C)C)c1 [Fedratinib]	1.03 ± 0.038	0.948 ± 0.033	0.99 ± 0.02	0.928 ± 0.047	0.924 ± 0.05	0.888 ± 0.021	0.805 ± 0.033	0.649 ± 0.026	0.497 ± 0.0061	0.263 ± 0.025	0.0101 ± 0.0019
C=CC(=O)N1CCC[C@@H](n2nc(-c3ccc(Oc4ccccc4)cc3)c3c(N)ncnc32)C1 [Ibrutinib]	1.04 ± 0.018	1.01 ± 0.051	0.942 ± 0.027	0.9505 ± 0.0054	0.972 ± 0.088	0.927 ± 0.063	0.907 ± 0.014	0.926 ± 0.03	0.94 ± 0.05	0.907 ± 0.068	0.762 ± 0.03
CC[C@H](Nc1ncnc2[nH]cnc12)c1nc2cccc(F)c2c(=O)n1-c1ccccc1 [Idelalisib]	1.07 ± 0.061	1.07 ± 0.073	1.03 ± 0.055	1.05 ± 0.023	1.01 ± 0.038	0.987 ± 0.018	0.947 ± 0.049	0.919 ± 0.035	0.905 ± 0.05	0.843 ± 0.036	0.704 ± 0.011
O=C(Cc1ccc(-c2ccc(OCCN3CCOCC3)cc2)cn1)NCc1ccccc1 [KX2-391]	1.09 ± 0.061	1.02 ± 0.096	0.943 ± 0.046	0.959 ± 0.069	0.912 ± 0.019	0.792 ± 0.064	0.623 ± 0.018	0.562 ± 0.024	0.521 ± 0.029	0.501 ± 0.048	0.475 ± 0.019
O=C(Nc1cnn2ccc(N3CCC[C@@H]3c3cc(F)ccc3F)nc12)N1CC[C@H](O)C1 [Larotrectinib]	1.07 ± 0.041	0.958 ± 0.062	0.895 ± 0.033	0.874 ± 0.029	0.939 ± 0.019	0.887 ± 0.074	0.936 ± 0.021	0.905 ± 0.095	0.85 ± 0.013	0.84 ± 0.094	0.849 ± 0.02
